The record followed here is patent US9611224B2 (Hoffmann-La Roche Inc., priority 2012, dated 2017).

Molecules are shown by their SMILES. Where a name gives a salt, the structure may show the parent alone. Read-outs that look alike come from different tables or passages of the source.

In the experiment the target is BIR3 domain of XIAP (Homo sapiens (Human), UniProt P98170). In words: TR-FRET assay for BIR3 (inhibition of binding to Peptide A). Here is the method: TR-FRET Assay for BIR2 and BIR3
BIR3 domain of XIAP, sequence (P98170 other isoform, or with tags, fused parts or gaps): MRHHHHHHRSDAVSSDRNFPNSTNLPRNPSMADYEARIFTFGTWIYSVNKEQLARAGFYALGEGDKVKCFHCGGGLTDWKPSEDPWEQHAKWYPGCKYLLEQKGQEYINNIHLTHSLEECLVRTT
Percentage of inhibition at each concentration was determined to generate an IC50 value for each test compound.
Background: In TR-FRET formats the signal depends on donor and acceptor labels being close together.

[1] abbreviates: 6x His-tagged BIR3 domain (aa 241-356 of XIAP), 20 nM Peptide A, 10 concentrations.

As to `CN[C@@H](C)C(=O)N[C@H]1CCc2ccccc2N(Cc2c(OC)ccc3cc(-c4ncon4)ccc23)C1=O` [Example 32, (S)—N—[(S)-1-(2-Methoxy-6-[1,2,4]oxadiazol-3-yl-naphthalen-1-ylmethyl)-2-oxo-2,3,4,5-tetrahydro-1H-benzo[b]azepin-3-yl]-2-methylamino-propionamide hydrochloride], the IC50 under setting [1] is > 54.8 µM.
Still for that read-out and setting: for `CN[C@@H](C)C(=O)N[C@H]1CCc2ccccc2N(Cc2c(OC)ccc3cc(C(=N)NN)ccc23)C1=O` [Example 33, (S)—N—{(S)-1-[6-(N-Aminocarbamimidoyl)-2-methoxy-naphthalen-1-ylmethyl]-2-oxo-2,3,4,5-tetrahydro-1H-benzo[b]azepin-3-yl}-2-methylamino-propionamide dihydrochloride] the value was > 54.8 µM; for `CN[C@@H](C)C(=O)N[C@H]1CCc2ccccc2N(Cc2c(OC)ccc3cc(-c4cn[nH]c4)ccc23)C1=O` [Example 43, (S)—N—{(S)-1-[2-Methoxy-6-(1H-pyrazol-4-yl)-naphthalen-1-ylmethyl]-2-oxo-2,3,4,5-tetrahydro-1H-benzo[b]azepin-3-yl}-2-methylamino-propionamide hydrochloride], > 54.8 µM.
In the case of `CN[C@@H](C)C(=O)N[C@H]1CCc2ccccc2N(Cc2c(OC)ccc3c2CCCC3)C1=O` [Example 44, (S)—N—[(S)-1-(2-Methoxy-5,6,7,8-tetrahydro-naphthalen-1-ylmethyl)-2-oxo-2,3,4,5-tetrahydro-1H-benzo[b]azepin-3-yl]-2-methylamino-propionamide hydrochloride], the IC50 under setting [1] was > 57.6 µM.
Turning to `CN[C@@H](C)C(=O)N[C@H]1CCc2ccccc2N(Cc2c(OC)ccc3cc(C(C)=O)ccc23)C1=O` [Example 45, (S)—N—[(S)-1-(6-Acetyl-2-methoxy-naphthalen-1-ylmethyl)-2-oxo-2,3,4,5-tetrahydro-1H-benzo[b]azepin-3-yl]-2-methylamino-propionamide hydrochloride], the IC50 under setting [1] is > 54.8 µM.
On the same count and under the same terms, for `C=Cc1ccc2c(CN3C(=O)[C@@H](NC(=O)[C@H](C)NC)CCc4ccccc43)c(OC)ccc2c1` [Example 46, (S)—N—[(S)-1-(2-Methoxy-6-vinyl-naphthalen-1-ylmethyl)-2-oxo-2,3,4,5-tetrahydro-1H-benzo[b]azepin-3-yl]-2-methylamino-propionamide hydrochloride] the value was > 54.8 µM; for `CN[C@@H](C)C(=O)N[C@H]1CCc2ccccc2N(Cc2cnnc3ccccc23)C1=O` [Example 47aa, (S)—N—((S)-1-Cinnolin-4-ylmethyl-2-oxo-2,3,4,5-tetrahydro-1H-benzo[b]azepin-3-yl)-2-methylamino-propionamide hydrochloride], > 54.8 µM.
On the same count and under the same terms, for `CN[C@@H](C)C(=O)N[C@H]1CCc2ccccc2N(Cc2c(C)ccc3ccccc23)C1=O` [Example 47b, (S)-2-Methylamino-N—[(S)-1-(2-methyl-naphthalen-1-ylmethyl)-2-oxo-2,3,4,5-tetrahydro-1H-benzo[b]azepin-3-yl]-propionamide hydrochloride] the value was > 54.8 µM; for `CN[C@@H](C)C(=O)N[C@H]1CCc2ccccc2N(Cc2c(C)cc(C)c3ccccc23)C1=O` [Example 47bb, (S)—N—[(S)-1-(2,4-Dimethyl-naphthalen-1-ylmethyl)-2-oxo-2,3,4,5-tetrahydro-1H-benzo[b]azepin-3-yl]-2-methylamino-propionamide hydrochloride], > 54 µM; for `CN[C@@H](C)C(=O)N[C@H]1CCc2ccccc2N(Cc2c(OC)ccc3ccccc23)C1=O` [Example 47c, (S)—N—[(S)-1-(2-Methoxy-naphthalen-1-ylmethyl)-2-oxo-2,3,4,5-tetrahydro-1H-benzo[b]azepin-3-yl]-2-methylamino-propionamide hydrochloride], > 54 µM.
As to `CN[C@@H](C)C(=O)N[C@H]1CCc2ccccc2N(Cc2ccnc3ncccc23)C1=O` [Example 47cc, (S)-2-Methylamino-N—((S)-1-[1,8]naphthyridin-4-ylmethyl-2-oxo-2,3,4,5-tetrahydro-1H-benzo[b]azepin-3-yl)-propionamide hydrochloride], the IC50 under setting [1] is > 54.8 µM.
For `CN[C@@H](C)C(=O)N[C@H]1CCc2ccccc2N(Cc2ccnc3ccccc23)C1=O` [Example 47d, (S)-2-Methylamino-N—((S)-2-oxo-1-quinolin-4-ylmethyl-2,3,4,5-tetrahydro-1H-benzo[b]azepin-3-yl)-propionamide hydrochloride], the IC50 under setting [1] is > 54.8 µM.
On the same count and under the same terms, for `CN[C@@H](C)C(=O)N[C@H]1CCc2ccccc2N(Cc2c(OC(C)C)ccc3ccccc23)C1=O` [Example 47dd, (S)—N—[(S)-1-(2-Isopropoxy-naphthalen-1-ylmethyl)-2-oxo-2,3,4,5-tetrahydro-1H-benzo[b]azepin-3-yl]-2-methylamino-propionamide hydrochloride] the value was > 54.8 µM.
For the compound `CN[C@@H](C)C(=O)N[C@H]1CCc2ccccc2N(Cc2cccc3ncccc23)C1=O` [Example 47e, (S)-2-Methylamino-N—((S)-2-oxo-1-quinolin-5-ylmethyl-2,3,4,5-tetrahydro-1H-benzo[b]azepin-3-yl)-propionamide hydrochloride], under setting [1], the IC50 is > 54.8 µM.
On the same count and under the same terms, for `CN[C@@H](C)C(=O)N[C@H]1CCc2ccccc2N(Cc2cccc3cc4ccccc4cc23)C1=O` [Example 47ee, (S)—N—((S)-1-Anthracen-1-ylmethyl-2-oxo-2,3,4,5-tetrahydro-1H-benzo[b]azepin-3-yl)-2-methylamino-propionamide hydrochloride] the value was > 54.8 µM; for `CN[C@@H](C)C(=O)N[C@H]1CCc2ccccc2N(Cc2ccc(C)c3ccccc23)C1=O` [Example 47f, (S)-2-Methylamino-N—[(S)-1-(4-methyl-naphthalen-1-ylmethyl)-2-oxo-2,3,4,5-tetrahydro-1H-benzo[b]azepin-3-yl]-propionamide hydrochloride], > 54.8 µM; for `CN[C@@H](C)C(=O)N[C@H]1CCc2ccccc2N(Cc2cccc3ccc(Br)cc23)C1=O` [Example 47ff, (S)—N—[(S)-1-(7-Bromo-naphthalen-1-ylmethyl)-2-oxo-2,3,4,5-tetrahydro-1H-benzo[b]azepin-3-yl]-2-methylamino-propionamide hydrochloride], 47.5 µM.
Same read-out and setting: with `CN[C@@H](C)C(=O)N[C@H]1CCc2ccccc2N(Cc2ccc(Br)c3ccccc23)C1=O` [Example 47g, (S)—N—[(S)-1-(4-Bromo-naphthalen-1-ylmethyl)-2-oxo-2,3,4,5-tetrahydro-1H-benzo[b]azepin-3-yl]-2-methylamino-propionamide hydrochloride] the figure was > 54.8 µM; with `CN[C@@H](C)C(=O)N[C@H]1CCc2ccccc2N(Cc2cc(Br)cc3ccccc23)C1=O` [Example 47gg, (S)—N—[(S)-1-(3-Bromo-naphthalen-1-ylmethyl)-2-oxo-2,3,4,5-tetrahydro-1H-benzo[b]azepin-3-yl]-2-methylamino-propionamide hydrochloride], > 54.8 µM.
On the same count and under the same terms, with `CN[C@@H](C)C(=O)N[C@H]1CCc2ccccc2N(Cc2cccc3ccccc23)C1=O` [Example 47h, (S)-2-Methylamino-N—((S)-1-naphthalen-1-ylmethyl-2-oxo-2,3,4,5-tetrahydro-1H-benzo[b]azepin-3-yl)-propionamide hydrochloride] the figure was > 54.2 µM; with `CN[C@@H](C)C(=O)N[C@H]1CCc2ccccc2N(Cc2cccc3cccc(Br)c23)C1=O` [Example 47hh, (S)—N—[(S)-1-(8-Bromo-naphthalen-1-ylmethyl)-2-oxo-2,3,4,5-tetrahydro-1H-benzo[b]azepin-3-yl]-2-methylamino-propionamide hydrochloride], > 54.8 µM.
Turning to `C#Cc1ccc2ccccc2c1CN1C(=O)[C@@H](NC(=O)[C@H](C)NC)CCc2ccccc21` [Example 47i, (S)—N—[(S)-1-(2-Ethynyl-naphthalen-1-ylmethyl)-2-oxo-2,3,4,5-tetrahydro-1H-benzo[b]azepin-3-yl]-2-methylamino-propionamide hydrochloride], the IC50 under setting [1] is > 54.8 µM.
On to `CN[C@@H](C)C(=O)N[C@H]1CCc2ccccc2N(Cc2c(OC)cnc3ccccc23)C1=O` [Example 47ii, (S)—N—[(S)-1-(3-Methoxy-quinolin-4-ylmethyl)-2-oxo-2,3,4,5-tetrahydro-1H-benzo[b]azepin-3-yl]-2-methylamino-propionamide hydrochloride], for which the half-inhibitory concentration (IC50) under setting [1] was found to be 44.9 µM.
The same measure, in the same setting: for `C#Cc1cnc2ccccc2c1CN1C(=O)[C@@H](NC(=O)[C@H](C)NC)CCc2ccccc21` [Example 47j, (S)—N—[(S)-1-(3-Ethynyl-quinolin-4-ylmethyl)-2-oxo-2,3,4,5-tetrahydro-1H-benzo[b]azepin-3-yl]-2-methylamino-propionamide hydrochloride] the value was 37.2 µM; for `CN[C@@H](C)C(=O)N[C@H]1CCc2ccccc2N(Cc2cccc3ccsc23)C1=O` [Example 47jj, (S)—N—((S)-1-Benzo[b]thiophen-7-ylmethyl-2-oxo-2,3,4,5-tetrahydro-1H-benzo[b]azepin-3-yl)-2-methylamino-propionamide hydrochloride], > 54.8 µM; for `CN[C@@H](C)C(=O)N[C@H]1CCc2ccccc2N(Cc2c(C3CC3)ccc3ccccc23)C1=O` [Example 47k, (S)—N—[(S)-1-(2-Cyclopropyl-naphthalen-1-ylmethyl)-2-oxo-2,3,4,5-tetrahydro-1H-benzo[b]azepin-3-yl]-2-methylamino-propionamide hydrochloride], > 54.8 µM.
Take `CN[C@@H](C)C(=O)N[C@H]1CCc2ccccc2N(Cc2ccc(C#N)c3ccccc23)C1=O` [Example 47kk, (S)—N—[(S)-1-(4-Cyano-naphthalen-1-ylmethyl)-2-oxo-2,3,4,5-tetrahydro-1H-benzo[b]azepin-3-yl]-2-methylamino-propionamide hydrochloride]: under setting [1], the IC50 was > 54.8 µM.
`CN[C@@H](C)C(=O)N[C@H]1CCc2ccccc2N(Cc2c(OC)ccc3cc(C(F)(F)F)ccc23)C1=O` [Example 47l, (S)—N—[(S)-1-(2-Methoxy-6-trifluoromethyl-naphthalen-1-ylmethyl)-2-oxo-2,3,4,5-tetrahydro-1H-benzo[b]azepin-3-yl]-2-methylamino-propionamide hydrochloride] returned an IC50 of 40.4 µM.

Broadly, the IC50 is the point on the concentration scale where inhibition reaches its midpoint.
